In one series the test system is HT-29 cells. Description: MTS cell viability test on HT-29 cells. It counts as cell-based, Human. To be noted: HT-29, 24 h incubation at 37° C., 0-200 μM. How it is done: (§1) Human lung alveolar carcinoma A549 cells, provided by Prof. L. Migliore, University of Pisa, were grown in Ham's F12 medium supplemented with 10% Fetal Bovine Serum (FBS), 1 mM Gln, and antibiotics. Human colorectal adenocarcinoma HT-29 cells, provided by Prof. P. Petronini, University of Parma, were grown in DMEM High (glucose 4.5 g/1) supplemented with 10% FBS, 2 mM Gln and antibiotics. Cells were incubated at 37° C. at 5% CO2; after thawing, all cells were used for less than ten passages.
(§2) 3.5×10^3 B6KPC3 and A549 cells and 7.5×10^3 HT-29 cells were seeded into 96-well plates. […] After 24 h, cell viability was evaluated through MTS Cell Proliferation Colorimetric Assay Kit (Novus Biologicals, Abingdon, UK). […] In preliminary experiments the time of exposure to MTS (1 h for HT-29 and 3 h for A549 cells) was determined according to the metabolism of each cell type. Absorbance was measured at 492 nm with a microplate reader (EnSpire® Multimode Plate Reader, Perkin Elmer, Boston, Mass., USA).
(§3) Cell viability (CV) percentage was evaluated through the following formula: CV (%)=(Absorbance(treated wells))/(Absorbance(control wells))×100 with Absorbance (control wells) considered the absorbance of untreated cells incubated in medium without drugs. […]
(§4) Oxaliplatin, DACHPt, and Blank nanoparticles are thus used as controls. Viability was then evaluated with the MTS assay (see Material and Methods). […]
In general terms: Tetrazolium assays rely on reduction of a dye to a coloured formazan, in cell work by metabolically active cells.

A short description of series [1]: Pharmacokinetics after IV bolus injection, two-compartment analysis of plasma Pt. To be noted: mice, 35 μg Pt/mice.
Method: At specific time points, 15, 30 min, 1, 1.5, 3, 5, 8 and 12 h post dose, 200 μl of blood was taken and separated from plasma. Pt content was detected using ICP/MS.
A first-order, two-compartment model with bolus administration, expressed in terms of CL and V was applied to fit the data, using 1/yhat^2 as weighting function.
Based on the profile obtained (FIGS. 3A and 3B), the data were analyzed using a two-compartmental model.
A further series concerns A549 cells. The experiment in a line: MTS cell viability test on A549 cells. It is filed as cell-based, Human. The conditions noted are these: A549, 24 h incubation at 37° C., 0-200 μM. The protocol: as §1, §2, §3, §4
For series [2] the following is noted: clinical studies, end of a 2-hr infusion; cited from earlier work.
The next series concerns B6KPC3 cells. The experiment in a line: MTS cell viability test on B6KPC3 cells. It is filed as cell-based. The conditions noted are these: B6KPC3, 24 h incubation at 37° C., 0-200 μM. How it is done:
3.5×10^3 B6KPC3 and A549 cells and 7.5×10^3 HT-29 cells were seeded into 96-well plates. […] After 24 h, cell viability was evaluated through MTS Cell Proliferation Colorimetric Assay Kit (Novus Biologicals, Abingdon, UK). Briefly, medium was removed, and 100 μL of MTS solution diluted 1:10 in serum-free medium were added in each well. In preliminary experiments the time of exposure to MTS (1 h for HT-29 and 3 h for A549 cells) was determined according to the metabolism of each cell type. Absorbance was measured at 492 nm with a microplate reader (EnSpire® Multimode Plate Reader, Perkin Elmer, Boston, Mass., USA).
Cell viability (CV) percentage was evaluated through the following formula: CV (%)=(Absorbance(treated wells))/(Absorbance(control wells))×100 with Absorbance (control wells) considered the absorbance of untreated cells incubated in medium without drugs. G.3 Results for Viability Studies on HT-29, A549 and B6KPC3 Cells: MTS Test
Oxaliplatin, DACHPt, and Blank nanoparticles are thus used as controls. Viability was then evaluated with the MTS assay (see Material and Methods). Data were expressed as % of control (untreated cells). Data are means±SD of two experiments with 3 determinations each.

The subject of series [3] is multicellular HT116 spheroids. Description: Multicellular tumor spheroid (MCTS) volume follow-up. It is filed as cell-based. The text has this:
Multi cellular tumor spheroids (MCTS) were formed according to a previous published method [Virgone-Carlotta A, Lemasson M, Mertani H C, et al. In-depth phenotypic characterization of multicellular tumor spheroids: Effects of 5-Fluorouracil. PLOS ONE. 2017; 12(11):e0188100. doi: 10.1371/journal.pone.0188100]. Briefly, MCTS were formed using HTC-116 cell line in Ultra Low Attachment (ULA) 96 wells Round-Bottom plate (Greiner bio-one) to avoid cell-substrate attachment. The cells were trypsinized and were counted using a Malassez grid in order to obtain 2,400 cells per milliliter. This concentration of cells (i.e., 480 cells per well in a volume of 200 μL) was chosen in order to obtain a single spheroid per well, with a spheroid diameter at the end of the experimentation not exceeding 500 μm. The plate was centrifuged for 5 minutes at 1,200 g at room temperature to initiate the formation of spheroids. The plate was placed in the incubator under agitation at 37° C. and 5% CO2 during the whole experiment. At the end of the first day after seeding, 100 μL of culture medium was added to ensure proper 3D growth. […] The treatment was renewed during 3 days. Results are shown on FIGS. 4 to 6.
Blank NP were also used to assess nonspecific toxicity that could arise from the system. MCTS were monitored at day 0, 1, 2, 3, 4, and 7 day post treatment. Eight spheroids (n=8) were probed at each concentration (5, 25 and 50 μM). A ring of detaching cells appeared spontaneously after one day of treatment. The spheroids were transferred into new well plates to eliminate mechanically this uncohesive peripheral cell layer and to renew the drug and culture medium. Therefore, the reduction in volume monitored during treatment arose from a loss of viability as well as from a loss of cohesiveness.
We performed edge detection using a sobel threshold for each spheroid using the Image J software. The resulting binary images were fitted to an ellipse of major (LM) and minor (Lm) axes using the ImageJ “Analyse Particles” plugins. From this, a mean diameter was calculated, D=(LM+Lm)/2. The volume V was then determined assuming that the spheroids are spherical V=πD3/6. Results are shown on FIG. 7.
The volume of MCTS was evaluated from phase contrast microscopy images as a readout of cytotoxic effect. The data reported in FIGS. 4-6 represent normalized MCTS volume for different treatments with respect to the control volume (MCTS not treated). Three different drug concentrations were tested: 5, 25 and 50 μM.

We go through 2 molecules from patent US12144896B2, “Drug delivery system” (INSERM (INSTITUT NATIONAL DE LA SANTÉ ET DE LA RECHERCHE …, priority 2018, dated 2024).

“And” between values parts separate entries of the source, which are not always exact repeats. Equal entries are not always repeated.

The term IC50 denotes the midpoint of a concentration-inhibition curve. `NC1CCCCC1N.[Pt+2]` (stereo not shown) [DACHPt, di-aqua(1,2-diaminocyclohexane)platinum(II)] gave a half-inhibitory concentration (IC50) with HT-29 cells of 39 µM.
As a reminder, the Vss is a proportionality between amount in the body and measured concentration, not a real space. Read a high Vss as wide distribution into tissue. For orientation: AUC means the area under the concentration-time curve, a measure of exposure. Low values mean less exposure, high ones more exposure. As a reminder, the Cmax is the maximum level reached in the sampled fluid or tissue. “(R,R)-1,2-diaminocyclohexane(ethanedioato-O,O)platinum [Oxaliplatin]” gave an AUMC in series [1] of 65.1 ± 23.8 hr*hr*mg/L. Also, the “K12 (rate constant central to peripheral compartment)” value in series [1] worked out at 4.14 ± 0.72 h⁻¹; in series [1] (listed as oxaliplatin solution), 4.14 h⁻¹. Also, the “K21 (rate constant peripheral to central compartment)” value in series [1] turned out to be 0.398 ± 0.054 h⁻¹; in series [1] (listed as oxaliplatin) it was 0.398 h⁻¹. In addition, the Q in series [1] amounted to 0.060 ± 0.008 L/h. Also, the Vc was 0.014 ± 0.004 L in series [1] and 0.014 L in series [1] (listed as oxaliplatin solution). The Vp in series [1] is 0.15 ± 0.02 L; in series [1] (listed as oxaliplatin solution) it was 0.150 L. The molecule also had a Vss in series [1] of 0.165 L. The molecule further yielded an exposure (AUC) in series [1] (plasma) of 3.76 µg·h/mL. In addition, the “Alpha_HL (distribution half-life)” value in series [1] (plasma) worked out at 8.1 min. This molecule also displayed a CL in series [1] (plasma clearance) of 0.010 L/h. Further, the “Beta_HL (elimination half-life)” value in series [1] (plasma, listed as oxaliplatin solution) is 13.6 h and 13 h. In series [1] (time 0 hr), the Cmax amounted to 2.48 µg/mL. Besides, the IC50 with A549 cells is 11 µM; in the series on A549 cells (listed as oxaliplatin reference solution), 12 µM; with HT-29 cells, 74 µM; in the series on B6KPC3 cells, 23 µM. The “administered platinum present in the systemic circulation” value in series [2] is listed as 15%. For the same molecule, the “size reduction (%) of spheroids compared to control spheroids at the same day” value (“size reduction (%) of spheroids” below) in series [3] (5 μM, Day 0) is reported as −1.21%; in series [3] (5 μM, Day 1), 4.52%; in series [3] (5 μM, Day 2) it was 15.86%; in series [3] (5 μM, Day 3), 24.88%; in series [3] (5 μM, Day 4), 28.73%; in series [3] (25 μM, Day 0), 0.59%. The “size reduction (%) of spheroids” value in series [3] (25 μM, Day 1) came out at 16.06%; in series [3] (25 μM, Day 2), 29.27%; in series [3] (25 μM, Day 3) it was 40.23%; in series [3] (25 μM, Day 4), 45.93%; in series [3] (25 μM, Day 7), 52.04%; in series [3] (50 μM, Day 0), 0.62%. In addition, the “size reduction (%) of spheroids” value in series [3] (50 μM, Day 1) amounted to 16.78%; in series [3] (50 μM, Day 2), 32.53%; in series [3] (50 μM, Day 3), 44.17%; in series [3] (50 μM, Day 4), 48.93%; in series [3] (50 μM, Day 7) it was 71.67%. Also, the “appearance of treated spheroids on photographs” value in series [3] (50 μM, FIG. 7) was “few cells are still present and formed aggregates”.
